Biological target: T1, ALK (baculovirus expressed human ALK kinase domain F1098-K1410) (Homo sapiens, UniProt Q9UM73)
T1 construct: human ALK kinase domain F1098-K1410; made in house
Test: biochemical
Details: 1 μM ATP, 4 μM poly-AEKY, 12 nM ALK, 2 hours at ambient temperature; read-out: ALK IC50
Description: Kinase activity and compound inhibition are investigated using one or more of the three assay formats described below. The ATP concentrations for each assay are selected to be close to the Michaelis-Menten constant (KM) for each individual kinase. Dose-response experiments are performed at 10 different inhibitor concentrations in a 384-well plate format. […] Y=Min+(Max−Min)/(1+(X/IC50)^H) Equation (2) Luciferase-Coupled Chemiluminescent Kinase Assay
ALK biochemical activity was assessed using a Luciferase-Coupled Chemiluminescent Kinase assay (LCCA) format in which kinase activity was measured as the percent ATP remaining following the kinase reaction. ATP remaining after the kinase reaction was detected by luciferase-luciferin-coupled chemiluminescence. […] The mixture was incubated at ambient temperature for 2 hours after which 20 μL luciferase-luciferin mix was added and the chemiluminescent signal read using a Wallac Victor^2 reader. […] Consumption of ATP by ALK can be quantified and utilized as a measure of inhibition of ALK activity by compounds described herein. By employing serial dilutions of compounds to be tested, the ability of test compounds to inhibit ALK activity can be determined.

T1 sequence (Q9UM73 1098-1410): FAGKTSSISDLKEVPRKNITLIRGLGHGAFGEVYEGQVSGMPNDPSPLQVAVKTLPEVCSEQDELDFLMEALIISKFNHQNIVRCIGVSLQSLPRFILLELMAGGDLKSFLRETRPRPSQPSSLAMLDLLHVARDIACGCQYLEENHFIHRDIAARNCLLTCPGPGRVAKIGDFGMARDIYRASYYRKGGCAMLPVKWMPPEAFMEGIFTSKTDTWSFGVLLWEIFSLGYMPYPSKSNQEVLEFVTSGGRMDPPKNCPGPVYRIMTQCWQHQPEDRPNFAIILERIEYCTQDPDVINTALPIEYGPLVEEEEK

| Compound | IC50 |
| --- | --- |
| O=C(COc1ccc(OC(F)(F)F)cc1)NCc1nc(C(=O)NCCc2cccc(F)c2)cs1 [Entry 14, N-[2-(3-fluorophenyl)ethyl]-2-({[({4-[(trifluoromethyl)oxy]phenyl}oxy)acetyl]amino}methyl)-1,3-thiazole-4-carboxamide] | < 50 nM |
| CCCCNC(=O)c1csc(CNC(=O)COc2ccc(OC(F)(F)F)cc2)n1 [Entry 177, N-butyl-2-({[({4-[(trifluoromethyl)oxy]phenyl}oxy)acetyl]amino}methyl)-1,3-thiazole-4-carboxamide] | 50 to 500 nM |
| O=C(COc1ccc(OC(F)(F)F)cc1)NCc1nc(C(=O)NCC2CC2)cs1 [Entry 216, N-(cyclopropylmethyl)-2-({[({4-[(trifluoromethyl)oxy]phenyl}oxy)acetyl]amino}methyl)-1,3-thiazole-4-carboxamide] | 50 to 500 nM |
| O=C(COc1ccc(OC(F)(F)F)cc1)NCc1nc(C(=O)NCCc2cccc(C(F)(F)F)c2)cs1 [Entry 52, 2-({[({4-[(trifluoromethyl)oxy]phenyl}oxy)acetyl]amino}methyl)-N-{2-[3-(trifluoromethyl)phenyl]ethyl}-1,3-thiazole-4-carboxamide] | 50 to 500 nM |
| CC(C)C[C@@H](NC(=O)c1csc(CNC(=O)COc2ccc(OC(F)(F)F)cc2)n1)C(N)=O [Entry 202, N~2~-{[2-({[({4-[(trifluoromethyl)oxy]phenyl}oxy)acetyl]amino}methyl)-1,3-thiazol-4-yl]carbonyl}-D-leucinamide] | 50 to 500 nM |
| CC(C)(C)OC(=O)NC1CCN(C(=O)c2csc(CNC(=O)COc3ccc(OC(F)(F)F)cc3)n2)CC1 [Entry 254, 1,1-dimethylethyl(1-{[2-({[({4-[(trifluoromethyl)oxy]phenyl}oxy)acetyl]amino}methyl)-1,3-thiazol-4-yl]carbonyl}piperidin-4-yl)carbamate] | 500 to 2000 nM |
| Cc1cccc(CCNC(=O)c2coc(CNC(=O)COc3ccc(OC(F)(F)F)cc3)n2)c1 [Entry 151, N-[2-(3-methylphenyl)ethyl]-2-({[({4-[(trifluoromethyl)oxy]phenyl}oxy)acetyl]amino}methyl)-1,3-oxazole-4-carboxamide] | 50 to 500 nM |
| C[C@H](CNC(=O)c1coc(CNC(=O)COc2ccc(OC(F)(F)F)cc2)n1)c1ccccc1 [Entry 240, N-[(2S)-2-phenylpropyl]-2-({[({4-[(trifluoromethyl)oxy]phenyl}oxy)acetyl]amino}methyl)-1,3-oxazole-4-carboxamide] | 500 to 2000 nM |
| O=C(CNC(=O)c1ccc([N+](=O)[O-])cc1)NCc1nc(C(=O)NCCc2cccc(Cl)c2)cs1 [Entry 136, N-[2-(3-chlorophenyl)ethyl]-2-[({N-[(4-nitrophenyl)carbonyl]glycyl}amino)methyl]-1,3-thiazole-4-carboxamide] | 50 to 500 nM |
| O=C(COc1ccc(OC(F)(F)F)cc1)NCc1nc(C(=O)NCCc2ccccc2Cl)co1 [Entry 273, N-[2-(2-chlorophenyl)ethyl]-2-({[({4-[(trifluoromethyl)oxy]phenyl}oxy)acetyl]amino}methyl)-1,3-oxazole-4-carboxamide] | 500 to 2000 nM |
| O=C(COc1ccc(OC(F)(F)F)cc1)NCc1nc(C(=O)N[C@H]2CCCc3ccccc32)cs1 [Entry 79, N-[(1S)-1,2,3,4-tetrahydronaphthalen-1-yl]-2-({[({4-[(trifluoromethyl)oxy]phenyl}oxy)acetyl]amino}methyl)-1,3-thiazole-4-carboxamide] | 50 to 500 nM |
| O=C(COc1ccc(OC(F)(F)F)cc1)NCc1nc(C(=O)NCc2ccccc2Cl)co1 [Entry 261, N-[(2-chlorophenyl)methyl]-2-({[({4-[(trifluoromethyl)oxy]phenyl}oxy)acetyl]amino}methyl)-1,3-oxazole-4-carboxamide] | 500 to 2000 nM |
| COc1cc(CNC(=O)c2csc(CNC(=O)COc3ccc(OC(F)(F)F)cc3)n2)cc(OC)c1 [Entry 121, N-{[3,5-bis(methyloxy)phenyl]methyl}-2-({[({4-[(trifluoromethyl)oxy]phenyl}oxy)acetyl]amino}methyl)-1,3-thiazole-4-carboxamide] | 50 to 500 nM |
| CN1CCCC1CCNC(=O)c1csc(CNC(=O)COc2ccc(OC(F)(F)F)cc2)n1 (stereo not drawn) [Entry 247, N-[2-(1-methylpyrrolidin-2-yl)ethyl]-2-({[({4-[(trifluoromethyl)oxy]phenyl}oxy)acetyl]amino}methyl)-1,3-thiazole-4-carboxamide] | 500 to 2000 nM |
| CC(C)(C)CCNC(=O)c1csc(CNC(=O)COc2ccc(OC(F)(F)F)cc2)n1 [Entry 175, N-(3,3-dimethylbutyl)-2-({[({4-[(trifluoromethyl)oxy]phenyl}oxy)acetyl]amino}methyl)-1,3-thiazole-4-carboxamide] | 50 to 500 nM |
| C[C@H](CNC(=O)c1csc(CNC(=O)COc2ccc(OC(F)(F)F)cc2)n1)c1ccccc1 [Entry 26, N-[(2S)-2-phenylpropyl]-2-({[({4-[(trifluoromethyl)oxy]phenyl}oxy)acetyl]amino}methyl)-1,3-thiazole-4-carboxamide] | < 50 nM |
| COc1ccccc1CNC(=O)c1csc(CNC(=O)C/C=C/c2ccccc2)n1 [Entry 284, N-{[2-(methyloxy)phenyl]methyl}-2-({[(3E)-4-phenylbut-3-enoyl]amino}methyl)-1,3-thiazole-4-carboxamide] | 500 to 2000 nM |
| O=C(COc1ccc(OC(F)(F)F)cc1)NCc1nc(C(=O)N[C@@H]2CCCc3ccccc32)cs1 [Entry 165, N-[(1R)-1,2,3,4-tetrahydronaphthalen-1-yl]-2-({[({4-[(trifluoromethyl)oxy]phenyl}oxy)acetyl]amino}methyl)-1,3-thiazole-4-carboxamide] | 50 to 500 nM |
| CC(=O)NCCNC(=O)c1csc(CNC(=O)COc2ccc(OC(F)(F)F)cc2)n1 [Entry 281, N-[2-(acetylamino)ethyl]-2-({[({4-[(trifluoromethyl)oxy]phenyl}oxy)acetyl]amino}methyl)-1,3-thiazole-4-carboxamide] | 500 to 2000 nM |
| O=C(COc1ccc(OC(F)(F)F)cc1)NCc1nc(C(=O)NCc2ccccc2Cl)cs1 [Entry 32, N-[(2-chlorophenyl)methyl]-2-({[({4-[(trifluoromethyl)oxy]phenyl}oxy)acetyl]amino}methyl)-1,3-thiazole-4-carboxamide] | 50 to 500 nM |
| CC1CCCN(C(=O)c2csc(CNC(=O)COc3ccc(OC(F)(F)F)cc3)n2)C1 (stereo not drawn) [Entry 289, N-({4-[(3-methylpiperidin-1-yl)carbonyl]-1,3-thiazol-2-yl}methyl)-2-({4-[(trifluoromethyl)oxy]phenyl}oxy)acetamide] | 500 to 2000 nM |
| CCc1ccc(NC(=O)NCc2nc(C(=O)NCCc3cccc(Cl)c3)cs2)cc1 [Entry 8, N-[2-(3-chlorophenyl)ethyl]-2-[({[(4-ethylphenyl)amino]carbonyl}amino)methyl]-1,3-thiazole-4-carboxamide] | < 50 nM |
| C[C@@H]1CN(C(=O)c2csc(CNC(=O)COc3ccc(OC(F)(F)F)cc3)n2)C[C@H](C)O1 [Entry 255, N-[(4-{[(2R,6S)-2,6-dimethylmorpholin-4-yl]carbonyl}-1,3-thiazol-2-yl)methyl]-2-({4-[(trifluoromethyl)oxy]phenyl}oxy)acetamide] | 500 to 2000 nM |
| O=C(COc1ccc(OC(F)(F)F)cc1)NCc1nc(C(=O)N2CC[C@H]3CCCC[C@@H]3C2)cs1 [Entry 266, N-({4-[(4aR,8aS)-octahydroisoquinolin-2(1H)-ylcarbonyl]-1,3-thiazol-2-yl}methyl)-2-({4-[(trifluoromethyl)oxy]phenyl}oxy)acetamide] | 500 to 2000 nM |
| CCCCOc1ccc(NC(=O)NCc2nc(C(=O)NCc3ccccc3OC)cs2)cc1 [Entry 214, 2-{[({[4-(butyloxy)phenyl]amino}carbonyl)amino]methyl}-N-{[2-(methyloxy)phenyl]methyl}-1,3-thiazole-4-carboxamide] | 50 to 500 nM |
| COc1cc(CCNC(=O)c2coc(CNC(=O)COc3ccc(OC(F)(F)F)cc3)n2)cc(OC)c1 [Entry 207, N-{2-[3,5-bis(methyloxy)phenyl]ethyl}-2-({[({4-[(trifluoromethyl)oxy]phenyl}oxy)acetyl]amino}methyl)-1,3-oxazole-4-carboxamide] | 50 to 500 nM |
| O=C(COc1ccc(OC(F)(F)F)cc1)NCc1nc(C(=O)NCCc2ccccc2F)co1 [Entry 143, N-[2-(2-fluorophenyl)ethyl]-2-({[({4-[(trifluoromethyl)oxy]phenyl}oxy)acetyl]amino}methyl)-1,3-oxazole-4-carboxamide] | 50 to 500 nM |
| O=C(COc1ccc(OC(F)(F)F)cc1)NCc1nc(C(=O)NCCc2ccccc2)co1 [Entry 242, N-(2-phenylethyl)-2-({[({4-[(trifluoromethyl)oxy]phenyl}oxy)acetyl]amino}methyl)-1,3-oxazole-4-carboxamide] | 500 to 2000 nM |
| O=C(COc1ccc(OC(F)(F)F)cc1)NCc1nc(C(=O)N2CCCC3CCCCC32)cs1 (stereo not drawn) [Entry 252, N-{[4-(octahydroquinolin-1(2H)-ylcarbonyl)-1,3-thiazol-2-yl]methyl}-2-({4-[(trifluoromethyl)oxy]phenyl}oxy)acetamide] | 500 to 2000 nM |
| CCSCCNC(=O)c1csc(CNC(=O)COc2ccc(OC(F)(F)F)cc2)n1 [Entry 146, N-[2-(ethylthio)ethyl]-2-({[({4-[(trifluoromethyl)oxy]phenyl}oxy)acetyl]amino}methyl)-1,3-thiazole-4-carboxamide] | 50 to 500 nM |
